According to patent US6579696B1, “Polymyxin B conjugates” (priority 1992, dated 2003):
≈ marks a conversion by molar mass, not a printed value. Where two headings read alike, the source gives them in different places. Bridge positions count the residues as written; N and C are the ends. Square brackets hold non-standard residues; d marks the D form. Peptide text beside a SMILES is read from it. * marks the point of attachment. Fluorescein(5-Mal) = O=C1OC2(c3ccc(O)cc3Oc3cc(O)ccc32)c2ccc(N3C(=O)CC(*)C3=O)cc21; Ileψ(thiazoline)Cys = CC[C@H](C)[C@H](N)C1=N[C@H](C(=O)*)CS1; Succinimide(1-Et,3-yl) = CCN1C(=O)CC(*)C1=O; dOrn = NCCC[C@@H](N)C(=O)O

What was measured:
type I pili = type I pili (Escherichia coli, UniProt P08191)
S. aureus = experiment: MIC testing against S. aureus; type: cell-based, Staph. aureus; conditions: for activity against S. aureus (in words): controls at concentrations used in the derivatization
Protocol: 1.5 ml fractions were collected. The fractions in the void volume were pooled and sterile filtered. The activity of the conjugate was determined by standard MIC testing against S. aureus.

[1] = system: Staphylococcus epidermidis; experiment: MIC and MBC; type: cell-based
[2] = system: J5 bacteria phagocytosed by J774A.1 mouse macrophage cell line; type: cell-based
E. coli H16 [3] = system: E. coli H16
Salmonella 34576 = conditions: Table 43
E. coli H16 [4] = type: cell-based; conditions: for BDA: Table 42
E. coli = experiment: MIC assays, summary of modified PMB's; conditions: relative to PMB
Protocol: The MIC assays were performed as follows. Bacteria were grown overnight on TSB (Trypticase Soy Broth) plates at 37 degrees, and bacteria resuspended in sterile PBS to equal a #1 McFarland suspension. The suspension is diluted in TSB to a concentration of 5×10^5 organisms/ml. This diluted sample is the innoculum. Serial 2 fold dilutions of the conjugate to be tested are made in TSB (0.5 ml final volume of each dilution) in polystyrene tubes. 0.5 ml bacterial innoculum was added to each dilution tube. The conjugate concentrations are thus 2× the final concentration to be tested. Control tubes containing TSB alone, antimicrobial agent alone, and innoculum alone are also set. The tubes are vortexed and grown overnight in 37 degree incubator. […] Where two numbers are shown, the second number is the MIC of free PMB determined in the same experiment.

[5] = concentration expressed as absorbance at 280 nm
[6] = Table 40, first number of the cell

Sequence of type I pili (P08191 22-300): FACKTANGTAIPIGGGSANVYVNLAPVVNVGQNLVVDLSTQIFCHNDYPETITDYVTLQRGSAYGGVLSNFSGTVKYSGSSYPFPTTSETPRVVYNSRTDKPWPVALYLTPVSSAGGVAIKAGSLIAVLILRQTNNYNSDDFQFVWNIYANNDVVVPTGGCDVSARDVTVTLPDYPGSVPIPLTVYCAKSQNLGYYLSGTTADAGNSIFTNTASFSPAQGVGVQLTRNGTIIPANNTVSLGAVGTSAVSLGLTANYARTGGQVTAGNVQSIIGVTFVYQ
Sequence of type I pili (P08190 24-167 partner): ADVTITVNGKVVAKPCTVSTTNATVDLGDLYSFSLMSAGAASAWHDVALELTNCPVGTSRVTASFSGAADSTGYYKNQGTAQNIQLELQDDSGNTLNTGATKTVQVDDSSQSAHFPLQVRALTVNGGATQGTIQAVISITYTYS
Sequence of type I pili (P08189 23-176 partner limits assumed): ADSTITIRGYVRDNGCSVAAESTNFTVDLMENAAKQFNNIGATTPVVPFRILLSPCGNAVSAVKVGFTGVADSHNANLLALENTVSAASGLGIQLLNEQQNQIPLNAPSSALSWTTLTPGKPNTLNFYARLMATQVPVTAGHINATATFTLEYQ
Sequence of type I pili (P04128 24-182 partner): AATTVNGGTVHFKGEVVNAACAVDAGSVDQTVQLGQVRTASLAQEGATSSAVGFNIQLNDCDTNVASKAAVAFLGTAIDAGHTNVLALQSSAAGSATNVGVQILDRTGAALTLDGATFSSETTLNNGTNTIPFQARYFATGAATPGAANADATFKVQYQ

## N[C@@H](Cc1ccccc1)C(=O)Nc1ccc(O[C@H]2O[C@H](CO)[C@@H](O)[C@H](O)[C@@H]2O)cc1 [4-(N-phenylalanyl)-aminophenyl-α-D-mannopyranoside]
Type I pili
  activity relative to methyl α-mannopyranoside: approximately 1000 fold

## CC(=O)OCC1=C(C(=O)O)N2C(=O)[C@@H](N)[C@H]2SC1 [7-aminocephalosporanic acid]
S. aureus; [5]
  MIC: 3.7 A280

## CC[C@H](C)[C@H](N)C1=N[C@H](C(=O)N[C@@H](CC(C)C)C(=O)N[C@H](CCC(=O)O)C(=O)N[C@H](C(=O)N[C@H]2CCCCNC(=O)[C@H](CC(N)=O)NC(=O)[C@@H](CC(=O)O)NC(=O)[C@H](Cc3cnc[nH]3)NC(=O)[C@@H](Cc3ccccc3)NC(=O)[C@H]([C@@H](C)CC)NC(=O)[C@@H](CCCN)NC2=O)[C@@H](C)CC)CS1 [Bacitracin] ({Ileψ(thiazoline)Cys}-L[dE]IK[dOrn]I[dF]H[dD]N; lactam 4-C)
[1]; Table 25
  MIC: 25 µg/mL (≈ 17.6 µM)
[1]; Table 25, read-out: MBC
  MBC: 50 µg/mL (≈ 35.1 µM)

## CC(C)C[C@H](NC(=O)[C@H](C)N)C(=O)N[C@@H](Cc1ccc(O)cc1)C(=O)N[C@@H](CCCCN)C(=O)N[C@@H](CCCCN)C(=O)N[C@@H](CC(C)C)C(=O)N[C@@H](CC(C)C)C(=O)N[C@@H](CCCCN)C(=O)N[C@@H](CCCCN)C(=O)N[C@@H](CC(C)C)C(=O)N[C@@H](CC(C)C)C(=O)N[C@@H](CCCCN)C(=O)N[C@@H](CO)C(=O)N[C@@H](C)C(=O)N[C@@H](CCCCN)C(=O)N[C@@H](CCCCN)C(=O)N[C@@H](CC(C)C)C(=O)NCC(=O)N[C@@H](CSC1CC(=O)N(c2ccc3c(c2)C(=O)OC32c3ccc(O)cc3Oc3cc(O)ccc32)C1=O)C(N)=O (stereo partly drawn) [C19G-Mal-FL] (H-ALYKKLLKKLLKSAKKLGC(Fluorescein(5-Mal))-NH2; N-terminus assumed)
[2]; Table 61 (repeat assay), 1×10^8 J5 bacteria opsonized, from 100 macrophage examined, conjugates 0.5 ug/ml, anti-avidin 1/400, anti-fluorescein antibody 14 ug/ml
  % Macrophage with phagocytosed bacteria: 8%
[2]; with anti-fluorescein antibody
  enhancement of phagocytosis (in words): prevents the C19g-Mal-FL conjugate from enhancing bacterial phagocytosis
E. coli H16 [3]
  MIC: 10 µg/mL (≈ 3.89 µM)

## CCN1C(=O)CC(SC[C@H](NC(=O)CNC(=O)[C@H](CC(C)C)NC(=O)[C@H](CCCCN)NC(=O)[C@H](CCCCN)NC(=O)[C@H](C)NC(=O)[C@H](CO)NC(=O)[C@H](CCCCN)NC(=O)[C@H](CC(C)C)NC(=O)[C@H](CC(C)C)NC(=O)[C@H](CCCCN)NC(=O)[C@H](CCCCN)NC(=O)[C@H](CC(C)C)NC(=O)[C@H](CC(C)C)NC(=O)[C@H](CCCCN)NC(=O)[C@H](CCCCN)NC(=O)[C@H](Cc2ccc(O)cc2)NC(=O)[C@H](CC(C)C)NC(=O)[C@H](C)N)C(N)=O)C1=O (stereo partly drawn) [C19G-NEM] (H-ALYKKLLKKLLKSAKKLGC(Succinimide(1-Et,3-yl))-NH2; N-terminus assumed)
E. coli 0111:B4; 0111:B4
  MIC: 6 µg/mL (≈ 2.64 µM)
Salmonella 34576
  MIC: 6 µg/mL (≈ 2.64 µM)
E. coli H16 [3]
  MIC: 10 µg/mL (≈ 4.4 µM)
E. coli H16 [4]
  BDA: 2.5 to 5 µg/mL

## CC(C)C[C@H](NC(=O)[C@H](Cc1ccccc1)NC(=O)[C@H](CCCNC(=N)N)NC(=O)[C@H](CCCCN)NC(=O)[C@H](CCC(N)=O)NC(=O)[C@H](C)NC(=O)[C@H](CCCCN)NC(=O)[C@H](Cc1c[nH]c2ccccc12)NC(=O)[C@H](CCCCN)NC(=O)[C@@H](N)CS)C(=O)N[C@@H](CCCCN)C(=O)O [C90-99, cys-lys-trp-lys-ala-gln-lys-arg-phe-leu-lys, reference compound]
E. coli 0111:B4; 0111:B4
  MIC: >75 µg/mL
E. coli HB101; HB101
  MIC: >75 µg/mL

## O=C(Nc1ccc(O[C@H]2O[C@H](CO)[C@@H](O)[C@H](O)[C@@H]2O)cc1)c1ccccc1 [N-benzoyl derivative, 4-Benzamidophenyl-α-D-mannopyranoside]
Type I pili
  activity relative to methyl α-mannopyranoside: 1000 fold

## O=C(ON1C(=O)CC(S(=O)(=O)O)C1=O)c1cccc(N2C(=O)C=CC2=O)c1 (stereo not drawn) [Sulfo-MBS, m-Maleimidobenzoyl-N-hydroxysulfosuccinimide ester]
S. aureus
  activity against S. aureus (in words): inactive

## OCCS [beta-mercaptoethanol]
S. aureus
  activity against S. aureus (in words): inactive

## NCCO [ethanolamine]
S. aureus
  activity against S. aureus (in words): inactive

## CC1(C)S[C@@H]2[C@H](N)C(=O)N2[C@H]1C(=O)O [native aminopenicillanic acid, 6-aminopenicillanic acid]
S. aureus; Staphylococcus aureus, read-out: MIC
  MIC: 250 µg/mL (≈ 1160 µM)

## CC1(C)S[C@@H]2[C@H](NC(=O)[C@H](N)c3ccc(O)cc3)C(=O)N2[C@H]1C(=O)O [native amoxicillin, amoxicillin]
S. aureus
  MIC: 250 µg/mL (≈ 684 µM)

## CC1=C(C(=O)O)N2C(=O)[C@@H](NC(=O)[C@H](N)c3ccc(O)cc3)[C@H]2SC1 [native cefadroxil, cefadroxil]
S. aureus; [5]
  MIC: 0.028 A280

## Cysteinyl-PMB [PMB-Cys]
E. coli 0111:B4; [6]
  MIC: 0.7 µg/mL
E. coli 0111:B4; Table 41
  MIC: 0.8 to 1 µg/mL
E. coli
  antibiotic activity (in words): Active

## Imminothiolated PMB [PMB-Traut's]
E. coli HB101
  loss of anti-bacterial activity relative to PMB: 40-80 fold
E. coli HB101; Table 41
  MIC: 4 µg/mL

## Lysyl S-Succinamidyl (Fluorescein) PMB [PMB-Lys-FL]
E. coli 0111:B4; [6]
  MIC: 1 µg/mL

## Lysyl-PMB [PMB-Lys]
E. coli 0111:B4; [6]
  MIC: 2.0 µg/mL
E. coli 0111:B4; Table 41
  MIC: 2 µg/mL
E. coli
  antibiotic activity (in words): Active

## Monoalanyl PMB [PMB-Ala]
E. coli 0111:B4; [6]
  MIC: 0.7 µg/mL
E. coli 0111:B4; Table 41
  MIC: 0.8 to 2 µg/mL
E. coli
  antibiotic activity (in words): Active

## PMB-NHCOCH2SCOCH3 [PMB-SATA]
E. coli HB101
  loss of anti-bacterial activity relative to PMB: about 10 fold
E. coli HB101; Table 41
  MIC: 0.6 µg/mL
E. coli
  antibiotic activity (in words): Less Active

## PMB-S-Mercaptosuccinyl-succinimidyl-fluorescein [PMB-SAMSA-Mal-FL]
E. coli 0111:B4; [6]
  MIC: 10 µg/mL
E. coli 0111:B4; Table 44
  MIC: 4 to 20 µg/mL

## Polymyxin B-fluoroscein [PMB-NHS-FL]
E. coli HB101
  loss of anti-bacterial activity relative to PMB: 10-20 fold
E. coli HB101; Table 44
  MIC: 0.8 to 1 µg/mL

## S-(Acetomidomethyl)-t-butoxycarbonylcysteinyl PMB [PMB-Boc-Cys (ACM)]
E. coli 0111:B4; [6]
  MIC: 6.0 µg/mL
E. coli 0111:B4; Table 41
  MIC: 5 µg/mL

## S-(Acetomidomethyl)cysteinyl PMB [PMB-Cys (ACM)]
E. coli 0111:B4; [6]
  MIC: 1.2 µg/mL
E. coli 0111:B4; Table 41
  MIC: 5 µg/mL

## S-Acetylmercaptosuccinyl PMB [PMB-SAMSA]
E. coli 0111:B4; [6]
  MIC: 3.1 µg/mL
E. coli 0111:B4; Table 41
  MIC: 3 µg/mL
E. coli HB101
  loss of anti-bacterial activity relative to PMB: 10-30 fold
E. coli HB101; Table 41
  MIC: 0.5 to 3 µg/mL

## S-hydroxyethylthio maleimidomethyl cyclohexane carboxyl-N-cefadroxil ester
S. aureus; [5]
  MIC: 1.6 A280

## S-hydroxyethylthio-maleimidobenzoyl-N-aminocephalosporanic acid ester
S. aureus; [5]
  MIC: 0.86 A280

## ala-leu-tyr-lys-lys-leu-leu-lys-lys-leu-leu-lys-ser-ala-lys-lys-leu-gly-cys-amide [C19G]
E. coli H16 [4]
  lower activity than C18G: about 5 fold
  BDA: 25 to 50 µg/mL

## t-butoxycarbonyl-alanine-polymyxin B [PMB-BOC-Ala]
E. coli 0111:B4; Table 41
  MIC: 2 µg/mL

## α,ε-di-t-Butoxycarbonyl-lysyl-PMB [α,ε-di-t-butoxycarbonyl lysyl derivative]
E. coli
  antibiotic activity (in words): significantly less active

## α-Boc-ε{flourescein) thiocarbamoyl}-lysyl PMB [PMB-Boc-Lys-FL]
E. coli 0111:B4; [6]
  MIC: 12.5 µg/mL
